Here are results for one compound from PMC11575542 (Chemical Science, 2024).

In one test the target is FabF (ketosynthase) (Escherichia coli, UniProt P0AAI5). The test is classed as binding.
A further test concerns the target FabB (ketosynthase) (Escherichia coli, UniProt P0A953). The test is classed as binding.

Sequence of FabB (ketosynthase) (P0A953 whole entry): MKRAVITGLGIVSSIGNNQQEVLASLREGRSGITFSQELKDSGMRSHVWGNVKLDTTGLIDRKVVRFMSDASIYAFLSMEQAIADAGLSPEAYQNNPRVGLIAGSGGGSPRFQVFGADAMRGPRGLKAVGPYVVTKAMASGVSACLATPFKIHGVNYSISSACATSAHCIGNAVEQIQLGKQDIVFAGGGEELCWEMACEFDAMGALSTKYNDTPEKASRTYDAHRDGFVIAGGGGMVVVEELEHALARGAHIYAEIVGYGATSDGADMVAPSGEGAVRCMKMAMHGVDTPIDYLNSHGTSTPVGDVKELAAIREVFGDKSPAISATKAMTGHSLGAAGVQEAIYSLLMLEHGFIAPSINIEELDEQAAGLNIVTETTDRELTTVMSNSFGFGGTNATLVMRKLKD
Sequence of FabB (ketosynthase) (P0A6A8 2-78 partner): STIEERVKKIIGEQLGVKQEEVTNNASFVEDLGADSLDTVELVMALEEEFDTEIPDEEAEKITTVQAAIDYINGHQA
Sequence of FabF (ketosynthase) (P0AAI5 2-413): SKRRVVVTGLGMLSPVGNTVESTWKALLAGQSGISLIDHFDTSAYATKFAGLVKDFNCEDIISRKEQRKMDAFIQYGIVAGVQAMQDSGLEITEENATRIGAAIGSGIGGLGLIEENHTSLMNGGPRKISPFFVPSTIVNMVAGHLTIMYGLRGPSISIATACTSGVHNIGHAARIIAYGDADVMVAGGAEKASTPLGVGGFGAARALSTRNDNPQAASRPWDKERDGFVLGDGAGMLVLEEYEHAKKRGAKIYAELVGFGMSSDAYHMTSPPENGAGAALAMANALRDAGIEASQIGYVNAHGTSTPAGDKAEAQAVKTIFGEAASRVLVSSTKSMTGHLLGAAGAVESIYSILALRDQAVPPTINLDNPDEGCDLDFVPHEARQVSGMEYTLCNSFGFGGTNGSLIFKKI
Sequence of FabF (ketosynthase) (P0A6A8 2-78 partner): as the sequence (P0A6A8 2-78 partner) above

With `C/C=C/C/C=C/CCC(=O)[C@H]1O[C@H]1C(N)=O` [cerulenin], the IC50 against FabF (ketosynthase) was around 21.1 µM; at FabB (ketosynthase), around 22.5 µM.
